Results: ChEMBL document CHEMBL4483862, “Open-source discovery of chemical leads for next-generation chemoprotective antimalarials” (2018)

Tested on: Plasmodium berghei
Assay: Luciferase/luciferin-expressing antifolate-resistant parasites were used to infect a culture of HepG2 cells that were pre-incubated with compounds. Infected hepatocytes emit light due to the luciferase reaction. Assay results are presented as the percent inhibition of light emission compared to control. […]
Type: functional
Conditions: sporozoite; for IC90: read-out: LUCIFERASE INFECTION ASSAY - IC90
[1] = read-out: LUCIFERASE INFECTION ASSAY - IC50

Row | Compound | IC90 [µM] | also measured
1 | O=C(Nc1nonc1-c1cccs1)c1sc2cc(Cl)ccc2c1Cl | 2.76 | IC50 (FFLUC_HILL_SLOPE 17.9, FFLUC_R_SQUARED 0.511, HEPG2TOX_HILL_SLOPE 2.63, HEPG2TOX_R_SQUARED 0.88, PBLUC_HILL_SLOPE 16.1, PBLUC_R_SQUARED 0.687, read-out: LUCIFERASE INFECTION ASSAY - IC50): 2.41 µM
2 | CC(NC(=O)Cn1c2ccccc2c(=O)c2ccccc21)c1cc2ccccc2o1 (centres undefined) | > 10 | IC50 [1]: 6.06 µM
3 | CCCn1c(C)cc(/C=C(\C#N)C(=O)Nc2c(C)cccc2C(C)C)c1C | 2.35 | IC50 (HEPG2TOX_HILL_SLOPE 4.53, HEPG2TOX_R_SQUARED 0.804, PBLUC_HILL_SLOPE 3.44, PBLUC_R_SQUARED 0.565, read-out: LUCIFERASE INFECTION ASSAY - IC50): 1.24 µM
4 | COc1ccc(-c2cnc3c(NC(C)=O)cc(-c4ccc5[nH]ccc5c4)cn23)cc1OC | > 7.74 | IC50 [1]: > 7.74 µM
5 | CCN(CC)S(=O)(=O)c1ccc(C(C)NC(=O)c2cn(C)c3ccccc23)cc1 (centres undefined) | 6.07 | IC50 (PBLUC_HILL_SLOPE 2.76, PBLUC_R_SQUARED 0.764, read-out: LUCIFERASE INFECTION ASSAY - IC50): 2.73 µM
6 | Cc1ccc2nc(NC(=O)c3ccc(C#N)cc3)c(C(=O)NC3CCCCC3)n2c1 | > 8.22 | IC50 (HEPG2TOX_HILL_SLOPE 2.19, HEPG2TOX_R_SQUARED 0.834, PBLUC_HILL_SLOPE 2.97, PBLUC_R_SQUARED 0.239, read-out: LUCIFERASE INFECTION ASSAY - IC50): 4.92 µM
7 | O=C(CSc1ccccc1)Nc1nc2ccccn2c1C(=O)NC1CCCC1 | > 8.37 | IC50 (PBLUC_HILL_SLOPE 8.28, PBLUC_R_SQUARED 0.442, read-out: LUCIFERASE INFECTION ASSAY - IC50): 7.37 µM
8 | O=C(Nc1ncccc1O)c1ccc(N2CCOCC2)nc1 | 4.08 | IC50 (FFLUC_HILL_SLOPE 6.17, FFLUC_R_SQUARED 0.111, PBLUC_HILL_SLOPE 1.25, PBLUC_R_SQUARED 0.907, read-out: LUCIFERASE INFECTION ASSAY - IC50): 0.705 µM
9 | C=CCN(c1ccc(C(=O)Nc2ccc(C(F)(F)F)cc2)cc1)S(C)(=O)=O | 7.12 | IC50 (HEPG2TOX_HILL_SLOPE 1.13, HEPG2TOX_R_SQUARED 0.916, PBLUC_HILL_SLOPE 2.09, PBLUC_R_SQUARED 0.336, read-out: LUCIFERASE INFECTION ASSAY - IC50): 2.49 µM
10 | N#Cc1ccc(N2CCCN(C(=O)Nc3cc(Cl)cc(Cl)c3)CC2)nc1 | > 8.46 | IC50 [1]: > 8.46 µM
11 | COc1ccc(Cc2nnc(SCC(=O)/C(C#N)=C(\C)N)n2-c2ccc(Oc3ccccc3)cc2)cc1OC | > 10 | IC50 [1]: > 10 µM
12 | COC(=O)C1=C2N(C)c3ccccc3N2C(Nc2ccc(C)cc2)=NC1C(F)(F)F.Cc1ccc(C)cc1 (centres undefined) | > 10 | IC50 (FFLUC_HILL_SLOPE 2.2, FFLUC_R_SQUARED 0.697, HEPG2TOX_HILL_SLOPE 5.36, HEPG2TOX_R_SQUARED 0.5, PBLUC_HILL_SLOPE 4.61, PBLUC_R_SQUARED 0.0573, read-out: LUCIFERASE INFECTION ASSAY - IC50): 7.42 µM
13 | Cn1c(Sc2ncc([N+](=O)[O-])s2)n[nH]c1=O | 7.26 | IC50 (FFLUC_HILL_SLOPE 1.35, FFLUC_R_SQUARED 0.48, HEPG2TOX_HILL_SLOPE 8.97, HEPG2TOX_R_SQUARED 0.707, PBLUC_HILL_SLOPE 6.36, PBLUC_R_SQUARED 0.781, read-out: LUCIFERASE INFECTION ASSAY - IC50): 5.14 µM
14 | CC1CCCC(NC(=O)CNc2cc(C(F)(F)F)ccc2Oc2ccc(Br)cc2)C1C (centres undefined) | > 10 | IC50 [1]: > 10 µM
15 | CC(C)NC(=O)c1c(NC(=O)c2cccc(Cl)c2Cl)nc2ccccn12 | > 8.43 | IC50 (PBLUC_HILL_SLOPE 29.4, PBLUC_R_SQUARED 0.349, read-out: LUCIFERASE INFECTION ASSAY - IC50): 7.83 µM
16 | Nc1c(-c2ccccc2)[nH]c2ccccc12 | > 15.8 | IC50 [1]: > 15.8 µM
17 | CCS(=O)(=O)c1ncc(Cl)c(C(=O)Nc2ccccc2C(F)(F)F)n1 | 4.41 | IC50 (HEPG2TOX_HILL_SLOPE 4.53, HEPG2TOX_R_SQUARED 0.715, PBLUC_HILL_SLOPE 8.07, PBLUC_R_SQUARED 0.684, read-out: LUCIFERASE INFECTION ASSAY - IC50): 3.36 µM
18 | C[C@H](NC(=O)c1sc2ccccc2c1Cl)c1nnc2ccccn12 | > 9.25 | IC50 [1]: > 9.25 µM
19 | COC(=O)c1c(NC(C)=O)c2cc(NC(C)CC(C)C)cnc2n1CCC(C)C (centres undefined) | > 8.2 | IC50 [1]: > 8.2 µM

Row | Compound | IC90 [µM] | also measured
20 | O=C1Nc2ccccc2/C1=C/c1cccn1-c1ccc(C(F)(F)F)cc1 | > 9.31 | IC50 (PBLUC_HILL_SLOPE 2.37, PBLUC_R_SQUARED 0.071, read-out: LUCIFERASE INFECTION ASSAY - IC50): 5.82 µM
21 | O=C(Nc1nnc(C(F)(F)F)[nH]1)c1cc(-c2ccc(Br)cc2)nc2ccccc12 | > 10 | IC50 (HEPG2TOX_HILL_SLOPE 7.84, HEPG2TOX_R_SQUARED 0.569, PBLUC_HILL_SLOPE 1.54, PBLUC_R_SQUARED 0.197, read-out: LUCIFERASE INFECTION ASSAY - IC50): 9.57 µM
22 | CCN(CC)S(=O)(=O)c1ccc(C)c(NC(=O)CCc2ncc(-c3ccc(C)cc3)o2)c1 | 8.55 | IC50 (HEPG2TOX_HILL_SLOPE 2.43, HEPG2TOX_R_SQUARED 0.985, PBLUC_HILL_SLOPE 1.82, PBLUC_R_SQUARED 0.587, read-out: LUCIFERASE INFECTION ASSAY - IC50): 2.56 µM
23 | N/C(CC(=O)Nc1ccc(F)cc1F)=N\O | > 14.4 | IC50 [1]: > 14.4 µM
24 | O=C(Nc1ccc(F)cc1)Nc1cnn(-c2ccc(Cl)cc2)c1C(F)(F)F | 2.1 | IC50 (PBLUC_HILL_SLOPE 1.06, PBLUC_R_SQUARED 0.652, read-out: LUCIFERASE INFECTION ASSAY - IC50): 0.266 µM
25 | CC1=C2CCCC2CC/C1=N\NC(N)=O (centres undefined) | > 15.9 | IC50 (HEPG2TOX_HILL_SLOPE 20.4, HEPG2TOX_R_SQUARED 0.643, PBLUC_HILL_SLOPE 11.7, PBLUC_R_SQUARED 0.0908, read-out: LUCIFERASE INFECTION ASSAY - IC50): 14.9 µM
26 | CC(NC(=O)Nc1ccc(C#N)c(Cl)c1)c1cccs1 (centres undefined) | > 10 | IC50 [1]: > 10 µM
27 | COc1ccc(-c2cnc3cnc(-c4cccc(C(=O)N(C)C)c4)cn23)cc1 | 4.08 | IC50 (PBLUC_HILL_SLOPE 11.5, PBLUC_R_SQUARED 0.453, read-out: LUCIFERASE INFECTION ASSAY - IC50): 3.37 µM
28 | N#Cc1ccccc1COc1ccccc1-c1ccccc1 | > 10 | IC50 (PBLUC_HILL_SLOPE 3.31, PBLUC_R_SQUARED 0.0977, read-out: LUCIFERASE INFECTION ASSAY - IC50): 7.89 µM
29 | CC(C)OC(=O)c1c(NC(=O)CSc2nnc(N)[nH]2)sc2c1CCCC2 | > 10 | IC50 (PBLUC_HILL_SLOPE 4.93, PBLUC_R_SQUARED 0.291, read-out: LUCIFERASE INFECTION ASSAY - IC50): 7.71 µM
30 | CC(C)(C)c1cc(C(=O)Nc2ccc(Br)c(Cl)c2)n(Cc2ccccc2)n1 | > 7.39 | IC50 (FFLUC_HILL_SLOPE 13.4, FFLUC_R_SQUARED 0.471, HEPG2TOX_HILL_SLOPE 9.89, HEPG2TOX_R_SQUARED 0.67, PBLUC_HILL_SLOPE 12.6, PBLUC_R_SQUARED 0.293, read-out: LUCIFERASE INFECTION ASSAY - IC50): > 7.39 µM
31 | NC(=O)c1cccc(-c2cn3c(-c4cccc(O)c4)cnc3cn2)c1 | > 9.99 | IC50 (PBLUC_HILL_SLOPE 9.23, PBLUC_R_SQUARED 0.539, read-out: LUCIFERASE INFECTION ASSAY - IC50): 8.89 µM
32 | O=C(Sc1ccc(Cl)cc1Cl)c1cccnc1SCCS(=O)(=O)c1ccc(C(F)(F)F)cn1 | > 5.96 | IC50 (FFLUC_HILL_SLOPE 1.65, FFLUC_R_SQUARED 0.565, PBLUC_HILL_SLOPE 0.597, PBLUC_R_SQUARED 0.0951, read-out: LUCIFERASE INFECTION ASSAY - IC50): > 5.96 µM
33 | Oc1cccc(-c2nccc3n[nH]c(-c4cccc(F)c4)c23)c1 | > 10 | IC50 (PBLUC_HILL_SLOPE 3.75, PBLUC_R_SQUARED 0.113, read-out: LUCIFERASE INFECTION ASSAY - IC50): 6.03 µM
34 | OCCNc1nc(-c2cccnc2)nc2scc(-c3ccccc3)c12 | > 10 | IC50 (PBLUC_HILL_SLOPE 15.6, PBLUC_R_SQUARED 0.267, read-out: LUCIFERASE INFECTION ASSAY - IC50): 9.57 µM
35 | COc1cccc(C(=O)Nc2nc3ccccc3[nH]2)c1 | > 10 | IC50 [1]: > 10 µM
36 | COc1ccc(-c2cnc3sc(NCCCO)nn23)cc1OC | 7.9 | IC50 (PBLUC_HILL_SLOPE 3.23, PBLUC_R_SQUARED 0.708, read-out: LUCIFERASE INFECTION ASSAY - IC50): 4 µM
37 | CC(C)(C)C(=O)CSc1nnc(Nc2ccc(Oc3ccccc3)cc2)s1 | > 10 | IC50 (PBLUC_HILL_SLOPE 14.1, PBLUC_R_SQUARED 0.105, read-out: LUCIFERASE INFECTION ASSAY - IC50): 9.89 µM
